Measured values from patent publication US8071586B2, “Heterocyclyl compounds” (Hoffmann-La Roche Inc., priority 2008, dated 2011).
pIC50: −log10 of the molar value.

biological target: T1, human chemokine receptor 2 isoform B (CCR2) (Homo sapiens, UniProt P41597); assay: Calcium mobilization assay (FLIPR, MCP-1 stimulated CHOK1-CCR2B-A5 cells); format: cell-based; conditions: Ca mobilisation assay, CCR2 antagonist activity, inhibition of MCP-1 induced calcium increase
T1 sequence (P41597 1-360 isoform P41597-2): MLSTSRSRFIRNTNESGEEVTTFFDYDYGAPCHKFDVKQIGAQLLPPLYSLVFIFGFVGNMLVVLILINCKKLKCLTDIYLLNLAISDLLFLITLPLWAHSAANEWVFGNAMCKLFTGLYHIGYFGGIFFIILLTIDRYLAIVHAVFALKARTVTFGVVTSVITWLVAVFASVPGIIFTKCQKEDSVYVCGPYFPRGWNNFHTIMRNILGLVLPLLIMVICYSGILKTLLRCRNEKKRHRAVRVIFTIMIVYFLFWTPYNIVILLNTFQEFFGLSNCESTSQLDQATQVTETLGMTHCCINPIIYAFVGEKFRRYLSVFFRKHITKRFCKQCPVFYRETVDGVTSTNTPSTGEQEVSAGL
Procedure: Calcium Mobilization Assay
CHOK1-CCR2B-A5 cells (from Euroscreen) stably overexpressing the human chemokine receptor 2 isoform B were cultured in Nutrient Hams F12 medium supplemented with 5% FBS, 100 U/ml penicillin, 100 μg/ml streptomycin, 400 μg/ml G418 and 5 μg/ml puromycin.
For the assay cells were grown overnight in 384-well black clear flat bottom polystyrene plates (Costar) at 37° C. at 5% CO2. After washing with DMEM, 20 mM Hepes, 2.5 mM probenecid, 0.1% BSA (DMEM assay buffer) cells were loaded with 4 μM Fluo-4 in the same DMEM assay buffer for 2 hours at 30° C. Excess dye was removed and cells were washed with DMEM assay buffer. 384-well compound plates were prepared with DMEM assay buffer/0.5% DMSO with or without various concentrations of test compounds. Usually compounds were tested for agonist and antagonist activity.
Test compounds were added to the assay plate and agonist activity was monitored as fluorescence for 80 seconds with a FLIPR (488 nm excitation; 510-570 nm emission; Molecular Devices). After 20-30 min. of incubation at 30° C., […] MCP-1 (R&D; Roche) was added and fluorescence was monitored again for 80 seconds. Increases in intracellular calcium are reported as maximum fluorescence after agonist exposure minus basal fluorescence before exposure. Antagonist activity is indicated as inhibitor concentration required for 50% inhibition of specific calcium increases.

pIC50	Structure (SMILES)
8.52	C[C@@H]1CN(CCCN2CCC3(CC3)[C@H](O)C2)C(=O)CCN1C(=O)Nc1ccc(Cl)c(Cl)c1 [Example 58, (R)-4-[3-((S)-4-Hydroxy-6-aza-spiro[2.5]oct-6-yl)-propyl]-2-methyl-5-oxo-[1,4]diazepane-1-carboxylic acid (3,4-dichloro-phenyl)-amide]
6.01	O=C1CCN(C(=O)Nc2ccc(Cl)c(Cl)c2)CCN1CCCN1CCCCC1 [Example 11, 5-Oxo-4-(3-piperidin-1-yl-propyl)-[1,4]diazepane-1-carboxylic acid (3,4-dichloro-phenyl)-amide]
8.40	C[C@H]1C(=O)N(CCCN2CCC3(CC3)[C@H](O)C2)CCN1C(=O)Nc1ccc(F)c(Cl)c1 [Example 70, (S)-4-[3-((S)-4-Hydroxy-6-aza-spiro[2.5]oct-6-yl)-propyl]-2-methyl-3-oxo-piperazine-1-carboxylic acid (3-chloro-4-fluoro-phenyl)-amide]
6.21	C[C@H]1C(=O)N(CCCN2CCCCC2)CCN1C(=O)Nc1cccc(-c2ccccc2)c1 [Example 43, (S)-2-Methyl-3-oxo-4-(3-piperidin-1-yl-propyl)-piperazine-1-carboxylic acid biphenyl-3-ylamide]
6.80	C[C@H]1C(=O)N(CCCN2CCC(O)CC2)CCN1C(=O)Nc1ccc(Cl)c(Cl)c1 [Example 49, (S)-4-[3-(4-Hydroxy-piperidin-1-yl)-propyl]-2-methyl-3-oxo-piperazine-1-carboxylic acid (3,4-dichloro-phenyl)-amide]
8.70	COC[C@H](CCN1CCC2(CC2)[C@H](O)C1)N1CCN(C(=O)Nc2ccc(Cl)c(Cl)c2)CCC1=O [Example 56, 4-[(S)-3-((S)-4-hydroxy-6-aza-spiro[2.5]oct-6-yl)-1-methoxymethyl-propyl]-5-oxo-[1,4]diazepane-1-carboxylic acid (3,4-dichloro-phenyl)-amide]
6.43	O=C(Nc1ccc(Cl)c(Cl)c1)N1CCN(CCCN2CCCCC2)S(=O)(=O)CC1 [Example 21, 1,1-Dioxo-2-(3-piperidin-1-yl-propyl)-[1,2,5]thiadiazepane-5-carboxylic acid (3,4-dichloro-phenyl)-amide]
6.72	C[C@H]1C(=O)N([C@@H](CCN2CCCCC2)COC(=O)Nc2ccc(Cl)c(Cl)c2)CCN1C(=O)Nc1ccc(Cl)c(Cl)c1 [Example 86, (3,4-Dichloro-phenyl)-carbamic acid (S)-2-[(S)-4-(3,4-dichloro-phenylcarbamoyl)-3-methyl-2-oxo-piperazin-1-yl]-4-piperidin-1-yl-butyl ester]
8.22	O=C1CCN(C(=O)Nc2ccc(Cl)c(Cl)c2)CCN1CCCN1CCC2(CC2)[C@H](O)C1 [Example 54, 4-[3-((S)-4-Hydroxy-6-aza-spiro[2.5]oct-6-yl)-propyl]-5-oxo-[1,4]diazepane-1-carboxylic acid (3,4-dichloro-phenyl)-amide]
8.52	COCC(CCN1CCC2(CC2)[C@H](O)C1)N1CC(C)N(C(=O)Nc2ccc(Cl)c(Cl)c2)CCC1=O (stereo in doubt) [Example 68, (R)-4-[(S)-3-((S)-4-Hydroxy-6-aza-spiro[2.5]oct-6-yl)-1-methoxymethyl-propyl]-2-methyl-5-oxo-[1,4]diazepane-1-carboxylic acid (3,4-dichloro-phenyl)-amide]
9.00	O=C(Nc1ccc(Cl)c(Cl)c1)N1CCC(=O)N([C@H](CO)CCN2CCC3(CC3)[C@H](O)C2)CC1 [Example 53, 4-[(S)-3-((S)-4-Hydroxy-6-aza-spiro[2.5]oct-6-yl)-1-hydroxymethyl-propyl]-5-oxo-[1,4]diazepane-1-carboxylic acid (3,4-dichloro-phenyl)-amide]

Continued, molecule first:

Structure (SMILES)	pIC50
CCNC(=O)OC[C@H](CCN1CCC2(CC2)[C@H](O)C1)N1CCN(C(=O)Nc2cccc(Cl)c2)[C@@H](C)C1=O [Example 111, Ethyl-carbamic acid (S)-2-[(S)-4-(3-chloro-phenylcarbamoyl)-3-methyl-2-oxo-piperazin-1-yl]-4-((S)-4-hydroxy-6-aza-spiro[2.5]oct-6-yl)-butyl ester]	7.77
COC[C@H](CCN1CCC2(CC2)[C@H](O)C1)N1CCN(C(=O)Nc2ccccc2)[C@@H](C)C1=O [Example 84, (S)-4-[(S)-3-((S)-4-Hydroxy-6-aza-spiro[2.5]oct-6-yl)-1-methoxymethyl-propyl]-2-methyl-3-oxo-piperazine-1-carboxylic acid phenylamide]	7.38
COC[C@H](CCN1CCC2(CC2)[C@H](O)C1)N1CCN(C(=O)Nc2ccc(Cl)c(Cl)c2)[C@@H](C)C1=O [Example 80, (S)-4-[(S)-3-((S)-4-Hydroxy-6-aza-spiro[2.5]oct-6-yl)-1-methoxymethyl-propyl]-2-methyl-3-oxo-piperazine-1-carboxylic acid (3,4-dichloro-phenyl)-amide]	9.00
C[C@H]1C(=O)N([C@@H](CCN2CCC3(CC3)[C@H](O)C2)C(=O)N(C)C)CCN1C(=O)Nc1cccc(Cl)c1 [Example 125, (S)-4-[(S)-1-Dimethylcarbamoyl-3-((S)-4-hydroxy-6-aza-spiro[2.5]oct-6-yl)-propyl]-2-methyl-3-oxo-piperazine-1-carboxylic acid (3-chloro-phenyl)-amide]	7.80
C[C@H]1C(=O)N(CCCCN2CCC3(CC3)[C@H](O)C2)CCN1C(=O)Nc1cccc(-c2cccnc2)c1 [Example 94, (S)-4-[4-((S)-4-Hydroxy-6-aza-spiro[2.5]oct-6-yl)-butyl]-2-methyl-3-oxo-piperazine-1-carboxylic acid (3-pyridin-3-yl-phenyl)-amide]	6.53
C[C@H]1C(=O)N(CCCN2CCC3(CC3)[C@H](O)C2)CCN1C(=O)Nc1ccc2ccccc2c1 [Example 75, (S)-4-[3-((S)-4-Hydroxy-6-aza-spiro[2.5]oct-6-yl)-propyl]-2-methyl-3-oxo-piperazine-1-carboxylic acid naphthalen-2-ylamide]	8.52
C[C@H]1C(=O)N(C[C@H](O)CN2CCC3(CC3)[C@H](O)C2)CCN1C(=O)Nc1cccc(Cl)c1 [Example 123, (S)-4-[(R)-2-Hydroxy-3-((S)-4-hydroxy-6-aza-spiro[2.5]oct-6-yl)-propyl]-2-methyl-3-oxo-piperazine-1-carboxylic acid (3-chloro-phenyl)-amide]	6.61
COC[C@H](CCN1CCC2(CC2)[C@H](O)C1)N1CCN(C(=O)Nc2ccc(F)c(Cl)c2)[C@@H](C)C1=O [Example 79, (S)-4-[(S)-3-((S)-4-Hydroxy-6-aza-spiro[2.5]oct-6-yl)-1-methoxymethyl-propyl]-2-methyl-3-oxo-piperazine-1-carboxylic acid (3-chloro-4-fluoro-phenyl)-amide]	8.52
C[C@H]1C(=O)N(CCCN2CCC3(CC3)[C@H](O)C2)CCN1C(=O)Nc1ccc(Cl)cc1 [Example 72, (S)-4-[3-((S)-4-Hydroxy-6-aza-spiro[2.5]oct-6-yl)-propyl]-2-methyl-3-oxo-piperazine-1-carboxylic acid (4-chloro-phenyl)-amide]	8.10
COC(=O)[C@H](CCN1CCC2(CC2)[C@H](O)C1)N1CCN(C(=O)Nc2cccc(Cl)c2)CCC1=O [Example 3, (S)-2-[4-(3-Chloro-phenylcarbamoyl)-7-oxo-[1,4]diazepan-1-yl]-4-((S)-4-hydroxy-6-aza-spiro[2.5]oct-6-yl)-butyric acid methyl ester]	6.57
CCCCCC(=O)OC[C@H](CCN1CCC2(CC2)[C@H](O)C1)N1CCN(C(=O)Nc2ccc(Cl)c(Cl)c2)[C@@H](C)C1=O [Example 116, Hexanoic acid (S)-2-[(S)-4-(3,4-dichloro-phenylcarbamoyl)-3-methyl-2-oxo-piperazin-1-yl]-4-((S)-4-hydroxy-6-aza-spiro[2.5]oct-6-yl)-butyl ester]	8.30
CC(C)OC(=O)OC[C@H](CCN1CCC2(CC2)[C@H](O)C1)N1CCN(C(=O)Nc2ccc(Cl)c(Cl)c2)[C@@H](C)C1=O [Example 113, Carbonic acid (S)-2-[(S)-4-(3,4-dichloro-phenylcarbamoyl)-3-methyl-2-oxo-piperazin-1-yl]-4-((S)-4-hydroxy-6-aza-spiro[2.5]oct-6-yl)-butyl ester isopropyl ester]	9.00
C[C@H]1C(=O)N(CCCN2CCC3(CC3)[C@H](O)C2)CCN1C(=O)Nc1cccc(F)c1 [Example 73, (S)-4-[3-((S)-4-Hydroxy-6-aza-spiro[2.5]oct-6-yl)-propyl]-2-methyl-3-oxo-piperazine-1-carboxylic acid (3-fluoro-phenyl)-amide]	7.68
CN(C)C(=O)C(CCN1CCC2(CC2)[C@H](O)C1)N1CCN(C(=O)Nc2cccc(Cl)c2)CCC1=O (stereo partly drawn) [Example 10, (R,S)-4-[1-Dimethylcarbamoyl-3-((S)-4-hydroxy-6-aza-spiro[2.5]oct-6-yl)-propyl]-5-oxo-[1,4]diazepane-1-carboxylic acid (3-chloro-phenyl)-amide]	6.11
